Reference: patent publication US7662853B2, “Monoacetyldiacylglycerol derivative for the treatment of sepsis” (priority 2004, dated 2010)

Experiments:
dendritic cells = test: Expression of adhesion molecules of dendritic cells (RT-PCR); assay type: cell-based, Balb/c AnN mice; settings: 1 μg/ml, compared to control
Method: Bone marrow cells were obtained from the femurs and tibias of Balb/c AnN mice (Park, J. et al. (2003) J. Korean Med. Sci., 18: 372-380). The cells were washed 3 times in RPMI, and then mononuclear cells were obtained. These mononuclear cells were allowed to adhere to tissue culture flask 3 hours in RPMI and 10% FBS. After incubation, the adherent cells (monocytes) were removed and non-adherent cells were placed in 100 mm tissue culture dishes, in a concentration of 1×10^5 cells/ml in RPMI plus 10% FBS supplemented with 20 ng/ml murine rGM-CSF (R & D systems, Minneapolis, Minn., USA), 10 ng/ml, murine IL-4 (R&D systems), and 2.5 ng/ml murine TNF-α (R & D systems). Culture dishes were fed every 3 days. Murine TNF-α (R & D systems) was added at the 6th day of the culture. After that, murine TNF-α (R & D systems) was added every 3 days until on the 11th day. Mature dendritic cells were harvested for RT-PCR of adhesion molecule studies. […]
Total RNA separated from dendritic cells and MS-5, low density cells cultured with oligo(dt)-primer, was reverse-transcribed, and PCR was performed at 94° C. for 30 seconds, 65° C. for 30 seconds and 72° C. for 50 seconds. […] For the quantification, PCR with GAPDH was performed to confirm the corresponding cDNA.

T-cell (T-4 and T-8) = test: Measurement of cytokine (IL-2) by Elispot, T cell activity; assay type: cell-based, mouse; settings: FIG. 1: Compound 3 1 μg/ml
Method: Elispot bioassay ([…] enzyme-linked immunospot assay) is a very sensitive quantification assay for detecting cytokine bound to the membrane because the bottom of each well of Elispot plates used in this assay was pre-coated with a cytokine specific antibody. Thus, Elispot assay was performed to measure the T cell activity. […] Each sample was tested in duplicate. Counting the number of IL-2 producing cells by Elispot is accomplished with Elispot reader (AID Elispot Reader System).

T-cells [1] = test: Measurement of cytokine by Bio-plex in activated T-cells; assay type: cell-based; settings: anti-CD3, anti-CD28 treated T-cells, 0.1, 1 μg/ml, 5 days, vs control
Method: Bio-plex can measure huge amount of cytokine at a time in a well. Thus, Bio-plex kit was used to quantify 8 kinds of cytokines of Th1/Th2 channels, which are secreted when T-cells are activated. Sterilized 24-well tissue culture plate (Nunc, Denmark) was treated with anti-CD3 and anti-CD28. Then, the plate was inoculated with T-cells by 2×10^6 cells/ml. […] On the 5th day, culture solutions at each different stage were recovered, followed by centrifugation. Supernatants were obtained and cytokine secreted therein was quantified by using Bio-plex kit according to the manufacturer's instruction (Bio-rad).

T-cells [2] = test: T-cell proliferation (3H-thymidine incorporation, SI); assay type: cell-based, C57BL/6 mice; settings: 7th day
Text: Splenocytes were collected from C57BL/6 mice (provided from Asan Institute for Life Sciences Animal Lab., Seoul, Korea) spleens. Then, single cell suspensions were obtained by repeated aspiration and flushing. Red blood cells were removed using ammonium chloride and then passed through nylon wool to remove debris and clumps. T-cells were purified using magnetic bead (MACS bead, Miltenyi Biotec, bergich gladbach, Germany) containing anti-goat IgG MACS bead, Miltenyi Biotec, bergich gladbach, Germany) or anti-mouse CD4 (MACS bead, Miltenyi Biotec, bergich gladbach, Germany) or anti-mouse CD8 antibody (MACS bead, Miltenyi Biotec, bergich gladbach, Germany) (Turner and Dockrell (1996) Immunology, 87: 339-342).
T cell suspensions were suspended in Isocove's modified Dulbecco's medium (IMDM, Gibco, Grand Island, N.Y.) supplemented with 10% fetal bovine serum (referred as ‘FBS’ hereinafter) (Gibco, Grand Island, N.Y.). […] On the 6th day, cells were incubated with 1 μCi ^3H-thymidine/well for 24 hours. On the 7th day, the cells were harvested and the […] (referred as ‘SI’ hereinafter) was calculated by the following Mathematical Formula 1. SI=^3H-thymidine absorbed by wells of experimental group (CPM in sample)/^3H-thymidine absorbed by wells of control group (CPM in control) [Mathematical Formula 1]

[3] = tested on: C3H/HeN mice with CLP-induced septic shock; test: CLP (Cecal Ligation and Puncture) test, septic shock; assay type: in vivo; settings: 50 mg/kg oral
Text: Ten 7-10 week old male inbred C3H/HeN mice (20-25 g of weight) were grouped. […] Septic shock was induced by CLP model in anesthetized mice. […] Control group was orally administered PBS+5% ethanol solution.

## CCCCC/C=C\C/C=C\CCCCCCCC(=O)OC(COC(C)=O)COC(=O)CCCCCCCCCCCCCCC (stereo not drawn) [Compound 3]
Dendritic cells
  expressions of adhesion molecules Icam-2, VLA-5, LFA-1: significantly increased
T-cell (T-4 and T-8); T-4 cells
  increased T-4 activity comparing to control group (IL-2 Elispot spots): 1.52 folds
T-cell (T-4 and T-8); T-8 cells
  increased T-8 activity comparing to control group (IL-2 Elispot spots): 1.46 folds
T-cells [1]
  amounts of secreted cytokines IL-2, IL-4 and IL-5: bigger than those in a control group
T-cells [2]; 0.01 μg/ml
  SI: 1.83 ± 0.32
T-cells [2]; 0.1 μg/ml
  SI: 1.96 ± 0.18
[3]; 0 hour
  Survival rate: 100%
[3]; 24 hours
  Survival rate: 100%
[3]; 48 hours
  Survival rate: 100%
[3]; 72 hours
  Survival rate: 100%
[3]; 96 hours
  Survival rate: 100%
[3]; 120 hours, 50 mg/kg
  Survival rate: 100%
